For data set [1], the system named is Hep 3B2. The data set is described as follows: Cell cycle arrest in human Hep3B cells assessed as accumulation at G0/G1 phase at 5 uM after 48 hrs by propidium iodide staining based flow cytometry (reference value: 39.7 to 40.4%). It counts as functional. For orientation: A flow cytometer gives signals particle by particle.
Data set [2] relates to Hep 3B2. The data set is described as follows: Cell cycle arrest in human Hep3B cells assessed as accumulation at G0/G1 phase at 10 uM after 48 hrs in absence of curcumin by propidium iodide staining based flow cytometry (reference value: […] +/- […]%). In kind it is functional.
The subject of data set [3] is Hep 3B2. The data set is described as follows: Effect on total GSK3beta expression in human Hep3B cells assessed as ratio of GSKbeta to beta-actin level at 10 uM after 48 hrs by Western blot analysis. The settings on record: hep 3b2, 48 h. In kind it is cell-based. (In general: Immunoblotting shows a protein as a band on a membrane.)

From ChEMBL document CHEMBL4024707, “Using gene expression database to uncover biology functions of 1,4-disubstituted 1,2,3-triazole analogues synthesized via a copper (I)-catalyzed reaction” (Eur J Med Chem, 2017) come the findings set out here.

For the compound `COc1ccc(CNC(=O)Nc2ncc([N+](=O)[O-])s2)cc1`, the Activity with Hep 3B2 [1] was determined as 38.5%.

As for `O=C1COc2ccccc2N1Cc1cn(CCC2OCCO2)nn1`, the Activity in the data set on Hep 3B2 [2] is 11.6%. Besides, the Ratio with Hep 3B2 [3] was 0.8.
